Measured values taken from patent US20090311198A1, “Perhydrolase for Tooth Whitening” (priority 2006, published 2009).
Marks after values point to notes of the source that are not given here.

Experiments:
[1] = Intrinsic stain removal (tooth whitening) on human enamel specimens, CIELAB colour readings; settings: for Total Change (ΔE) in Intrinsic Stain Scores: 20 ml, 30 minute intervals, mean ± SD, n = 8; for Dose-response of tooth whitening (ΔE): 0.20% to 0.01% solutions
Excerpt: In the following Examples, human permanent teeth with natural intrinsic stains were obtained from oral surgeons. Selection of appropriate teeth was based on the presence of intrinsic stain after removal of exogenous stains using methods known in the art involving use of rubber cup polishing with an aqueous pumice slurry. A VITA® dental shade guide was used as a reference for tooth selection. Only specimens with a shade score of A3 or darker after drying were used in these experiments. The test specimens were comprised of cylinders of human enamel 3 mm in diameter mounted in a 10-mm-diameter black acrylic base. The circular pieces of human enamel were cut using a 3-mm diamond core drill (Continental). In order to cut the enamel, the human teeth were first mounted in 2-cm square blocks of self-curing dental acrylic with the labial surface exposed. Each block was then clamped into a small vise and immersed in a container of water to prevent the enamel from burning during the cutting process. Each immersed tooth was positioned directly under and perpendicular to the diamond core drill bit mounted on the end of an electric drill press. At high speed, the diamond core drill was lowered onto the tooth and gentle pressure was applied as the bit cut through the enamel and dentin. The 3-mm piece of cut enamel was then removed from the end of the diamond core drill and embedded with the aid of a circular mold into black, self-curing dental acrylic, providing circular blocks 10 mm in diameter. This was done in such a manner that the areas of tooth substance exposed by the drilling process were sealed by the acrylic, while the 3-mm surface enamel was left exposed. The finished tooth specimens were examined under a dissecting microscope. Specimens with imperfections were discarded. Acceptable specimens were thoroughly rinsed with distilled water, and refrigerated in a humidor until use.
In these experiments, stain on the teeth was measured using the following method. The amount of the intrinsic stain within the teeth was measured by taking color readings with a Minolta CM-503i Spectrophotometer with diffuse illumination/8° viewing angle and 3 mm aperture. Measurements over the entire visible color spectrum were obtained using the CIELAB (Commission Internationale de L'Eclairage, Recommendations on Uniform Color Spaces. Color Difference Equations. Psychometric color Terms, Suppl. 2 to CIE publication 15 (E-13.1) 1971/(TC-1.3), 1978, Paris: Bureau Central de la CIE, 1978) color scale. This scale quantifies color according to 3 parameters, L* (lightness-darkness value), a* (red-green chroma), and b* (yellow-blue chroma). In order to obtain reproducible readings, the enamel specimens were allowed to air-dry at room temperature for 30 minutes before color measurements were taken. When the specimens were exposed to air, the teeth became whiter as they dry within the first few minutes and the color parameters change dramatically, but stabilized after 30 minutes.
Measurements were obtained by aligning the center of the circular 3-mm segment of enamel directly over the 3-mm-diameter targeting aperture of the Minolta spectrophotometer, which enabled accurate positioning of the specimens for each test. An average of 3 color readings using the L*a*b* scale were taken for each specimen.
In this Example, methods of treating the tooth samples are described. Before treatment, the baseline L*a*b* color scores of the tooth specimens were determined and used to stratify the teeth samples into balanced groups of 8 specimens each. For testing, each tooth specimen was immersed in 20 ml of the respective test solution for 30 minutes. The test solutions were stirred at 60 rpm with a mechanical stirrer for the duration of the exposure.
Following each 30-minute treatment period, the specimens were rinsed and then placed back into fresh test solution. […] As a control group, 8 teeth were similarly treated in distilled water. […]

[2] = Hydrolysis of PAA standards in buffer (ABTS assay standard curve); type: physicochemical; settings: B(OH)3 buffer; standard concentrations in B(OH)3, pH 8.5 buffer
Experimental: The standard curve was prepared as described below. A working stock of PAA was prepared by diluting 32% 10^4-fold to 0.4 mM in water (note: stock contained acetic acid). […] At ambient temperature, 50 to 100 uL of standard PAA dilution were added to 1 mL of the ABTS reagent. The solution was mixed well and incubated at ambient temperature for 3 minutes. The absorbance at 420 nm (or another chosen wavelength) was then measured.

[3] = aqueous 1% (by weight) solution; ambient to oral range temperatures; cited from earlier work
[4] = dilute 1% aqueous solution, cited from earlier work

## OO [H2O2, hydrogen peroxide]
[1]; 3% (positive control), Hour 1
  Total Change (ΔE) in Intrinsic Stain Scores: 6.21 ± 3.46^a
[1]; 3% (positive control), Hour 2
  Total Change (ΔE) in Intrinsic Stain Scores: 7.15 ± 2.96^a
[1]; 3% (positive control), Hour 4
  Total Change (ΔE) in Intrinsic Stain Scores: 7.28 ± 2.75^a
[1]; 3% (positive control), Hour 8
  Total Change (ΔE) in Intrinsic Stain Scores: 7.48 ± 2.95^a
[1]; 3% (positive control), Hour 10
  Total Change (ΔE) in Intrinsic Stain Scores: 7.77 ± 3.34^a
[1]; 3% (positive control), Hour 12
  Total Change (ΔE) in Intrinsic Stain Scores: 9.00 ± 4.07^a
[1]; 3% (positive control), Hour 14
  Total Change (ΔE) in Intrinsic Stain Scores: 9.68 ± 3.85^a
[1]; 3% (positive control), Hour 16
  Total Change (ΔE) in Intrinsic Stain Scores: 10.68 ± 3.51^a

## CC(=O)OO [Peracetic Acid, peracetic acid]
[1]; 0.01% in 100 mmolar phosphate buffer, Hour 1
  Total Change (ΔE) in Intrinsic Stain Scores: 2.98 ± 2.57^b,c,d
[1]; 0.01% in 100 mmolar phosphate buffer, Hour 2
  Total Change (ΔE) in Intrinsic Stain Scores: 4.06 ± 2.51^b
[1]; 0.01% in 100 mmolar phosphate buffer, Hour 4
  Total Change (ΔE) in Intrinsic Stain Scores: 4.09 ± 2.33^b
[1]; 0.01% in 100 mmolar phosphate buffer, Hour 8
  Total Change (ΔE) in Intrinsic Stain Scores: 5.11 ± 2.71^a
[1]; 0.01% in 100 mmolar phosphate buffer, Hour 10
  Total Change (ΔE) in Intrinsic Stain Scores: 5.88 ± 2.55^a
[1]; 0.01% in 100 mmolar phosphate buffer, Hour 12
  Total Change (ΔE) in Intrinsic Stain Scores: 6.79 ± 3.23^a
[1]; 0.01% in 100 mmolar phosphate buffer, Hour 14
  Total Change (ΔE) in Intrinsic Stain Scores: 7.13 ± 3.14^a
[1]; 0.01% in 100 mmolar phosphate buffer, Hour 16
  Total Change (ΔE) in Intrinsic Stain Scores: 7.57 ± 3.05^a
[1]; 0.05% in 100 mmolar phosphate buffer, Hour 1
  Total Change (ΔE) in Intrinsic Stain Scores: 3.41 ± 2.19^b,c,d
[1]; 0.05% in 100 mmolar phosphate buffer, Hour 2
  Total Change (ΔE) in Intrinsic Stain Scores: 3.83 ± 1.81^b
[1]; 0.05% in 100 mmolar phosphate buffer, Hour 4
  Total Change (ΔE) in Intrinsic Stain Scores: 4.72 ± 1.67^b
[1]; 0.05% in 100 mmolar phosphate buffer, Hour 8
  Total Change (ΔE) in Intrinsic Stain Scores: 5.04 ± 1.72^a
[1]; 0.05% in 100 mmolar phosphate buffer, Hour 10
  Total Change (ΔE) in Intrinsic Stain Scores: 6.08 ± 1.25^a
[1]; 0.05% in 100 mmolar phosphate buffer, Hour 12
  Total Change (ΔE) in Intrinsic Stain Scores: 6.55 ± 1.79^a
[1]; 0.05% in 100 mmolar phosphate buffer, Hour 14
  Total Change (ΔE) in Intrinsic Stain Scores: 6.82 ± 1.91^a
[1]; 0.05% in 100 mmolar phosphate buffer, Hour 16
  Total Change (ΔE) in Intrinsic Stain Scores: 7.72 ± 2.15^a
[1]; 0.10% in 100 mmolar phosphate buffer, Hour 1
  Total Change (ΔE) in Intrinsic Stain Scores: 5.60 ± 2.69^a,b
[1]; 0.10% in 100 mmolar phosphate buffer, Hour 2
  Total Change (ΔE) in Intrinsic Stain Scores: 5.38 ± 1.75^a,b
[1]; 0.10% in 100 mmolar phosphate buffer, Hour 4
  Total Change (ΔE) in Intrinsic Stain Scores: 6.09 ± 2.52^a,b
[1]; 0.10% in 100 mmolar phosphate buffer, Hour 8
  Total Change (ΔE) in Intrinsic Stain Scores: 6.58 ± 2.94^a
[1]; 0.10% in 100 mmolar phosphate buffer, Hour 10
  Total Change (ΔE) in Intrinsic Stain Scores: 7.05 ± 3.31^a
[1]; 0.10% in 100 mmolar phosphate buffer, Hour 12
  Total Change (ΔE) in Intrinsic Stain Scores: 7.89 ± 3.47^a
[1]; 0.10% in 100 mmolar phosphate buffer, Hour 14
  Total Change (ΔE) in Intrinsic Stain Scores: 8.71 ± 4.66^a
[1]; 0.10% in 100 mmolar phosphate buffer, Hour 16
  Total Change (ΔE) in Intrinsic Stain Scores: 9.08 ± 4.24^a
[1]; 0.20% in 100 mmolar phosphate buffer, Hour 1
  Total Change (ΔE) in Intrinsic Stain Scores: 5.31 ± 1.75^a,b,c
[1]; 0.20% in 100 mmolar phosphate buffer, Hour 2
  Total Change (ΔE) in Intrinsic Stain Scores: 6.60 ± 2.37^a
[1]; 0.20% in 100 mmolar phosphate buffer, Hour 4
  Total Change (ΔE) in Intrinsic Stain Scores: 7.37 ± 2.85^a
[1]; 0.20% in 100 mmolar phosphate buffer, Hour 8
  Total Change (ΔE) in Intrinsic Stain Scores: 7.54 ± 2.34^a
[1]; 0.20% in 100 mmolar phosphate buffer, Hour 10
  Total Change (ΔE) in Intrinsic Stain Scores: 7.72 ± 3.12^a
[1]; 0.20% in 100 mmolar phosphate buffer, Hour 12
  Total Change (ΔE) in Intrinsic Stain Scores: 8.53 ± 3.65^a
[1]; 0.20% in 100 mmolar phosphate buffer, Hour 14
  Total Change (ΔE) in Intrinsic Stain Scores: 9.08 ± 3.81^a
[1]; 0.20% in 100 mmolar phosphate buffer, Hour 16
  Total Change (ΔE) in Intrinsic Stain Scores: 9.34 ± 4.10^a
[1]; after 8 hours, ANOVA and SNK test, p < 0.05
  Tooth whitening (ΔE) compared with hydrogen peroxide positive control: statistically equivalent to the hydrogen peroxide positive control
[1]; during the first four hours of treatment
  Dose-response of tooth whitening (ΔE): significant dose-response
[1]; up to 16 hours of treatment
  Dose-response of tooth whitening (ΔE): numerical dose-response effect
[2]
  half-life: 25 min
[3]
  Whitening effect on teeth compared with 30% (by weight) aqueous hydrogen peroxide: faster and superior whitening effect
[4]; ambient temperatures
  Time to substantial decomposition: ≥ 30 days
[4]; storage at 3° C.
  Storage stability: significantly improves stability
